Data reported in patent US20080305186A1, “Method and Composition for the Treatment of Cardiac Hypertrophy” (BOARD OF REGENTS, THE UNIVERSITY OF TEXAS SYSTEM, priority 2007, published 2008).

System: cardiac gene expression
Experiment: Microarray analysis of cardiac gene expression (GeneChip Mouse Genome 430 2.0)
Type: in vivo, mice
Conditions: for FC Transglutaminase 2, C polypeptide (Tgm2): CH vs normal FC 2.0
Experimental: Microarray Sample Preparation and Analysis. Animal hearts were rapidly removed, and the atria and right ventricles were cut and immediately plunged into TRIzol Reagent (Life Technologies). Total RNA was isolated following the manufacturer's instructions, purified by phenol-chloroform extraction and then ethanol precipitation, and 20 μg further processed for microarray analysis. Briefly, cDNA synthesis, in vitro transcription, and labeling and fragmentation to produce the oligonucleotide probes were performed as instructed by the GeneChip manufacturer (Affymetrix). The probes were first hybridized to a test array (Affymetrix) and then to the GeneChip Mouse Genome 430 2.0 Array, using the GeneChip Hybridization Oven 640. The chips were washed in a GeneChip Fluidics Station 450 (Affymetrix), and the results were visualized with a GeneChip G7 scanner (Affymetrix). RMA normalization, pairwise comparisons, Student's t test and Benjamini and Hochberg correction were subsequently performed using GeneSifter (VizX Labs, Seattle, Wash.) and Spotfire DecisionSite 8.3 (Spotfire, Inc., Somerville, Mass.).
Effects on Gene Expression Profile. […] One mouse heart was used for each array, and was performed in triplicate, generating a total of 12 arrays. GeneSifter was used to perform RMA normalization, pairwise comparisons of averaged signal intensity values, and Student's t-test with Benjamini and Hochberg correction, and Spotfire was used to perform pairwise comparisons. […] Additionally, genes that were altered between any two N or cardiac hypertrophy samples were removed, as these alterations most likely represented normal variations between mice.

C[C@H]1c2cccc(O)c2C(=O)C2=C(O)[C@]3(O)C(=O)C(C(N)=O)=C(O)[C@@H](N(C)C)[C@@H]3[C@@H](O)[C@@H]21 [doxycycline]
FC IBR domain containing 2 (Ibrdc2) (GenBank AV274826, vs mice given only isoproterenol): −2.1 | FC Xanthine dehydrogenase (Xdh) (GenBank AV286265, heart, drug + isoproterenol vs isoproterenol-only mice, CH vs normal FC 3.9): −3.0 fold | FC UDP-N-acetyl-alpha-D-galactosamine:polypeptide N-acetylgalactosaminyltransferase-like 2 (Galntl2) (GenBank AV290688, heart, drug + isoproterenol vs isoproterenol-only mice, CH vs normal FC 3.3): −2.8 fold | FC Ras association (RalGDS/AF-6) domain family 4 (Neuropeptide signaling) (GenBank AV291679, vs mice given only isoproterenol): −2.2 | FC Syntaxin 3 (Stx3) (GenBank AV296217, vs mice given only isoproterenol): −1.6 | FC EST (GenBank AV318727, vs mice given only isoproterenol): 2.6 | FC F-box-WD40 repeat protein 6 (Fbxw6) (GenBank AV338062, vs mice given only isoproterenol): 1.9 | FC EST (GenBank AW123929, vs mice given only isoproterenol): −1.8 | FC EST (GenBank AW208574, vs mice given only isoproterenol): −1.9 | FC Myristoylated alanine rich protein kinase C substrate (Marcks) (GenBank AW546141, vs mice given only isoproterenol): 1.7 | FC Transmembrane protein 23 (Tmem23) (GenBank AW985925, heart, drug + isoproterenol vs isoproterenol-only mice, CH vs normal FC 2.8): −2.1 fold | FC Nuclear factor, interleukin 3, regulated (Nfil3) (GenBank AY061760, vs mice given only isoproterenol): −2.5 | FC RasGEF domain family, member 1B (Rasgef1b) (GenBank BB003229, vs mice given only isoproterenol): −2.4 | FC Transglutaminase 2, C polypeptide (Tgm2) (GenBank BB041811, heart, drug + isoproterenol vs isoproterenol-only mice): −1.7 fold | FC EST (GenBank BB069531, vs mice given only isoproterenol): 2.1 | FC G protein-coupled receptor 116 (Gprl16) (GenBank BB083808, vs mice given only isoproterenol): −2.0 | FC EST (GenBank BB096843, vs mice given only isoproterenol): −1.8 | FC RAN binding protein 9 (Ranbp9) (GenBank BB106402, vs mice given only isoproterenol): −2.6 | FC EST (GenBank BB109391, vs mice given only isoproterenol): −1.8 | FC Tumorsuppressor St7-like (St7l) (GenBank BB122084, heart, drug + isoproterenol vs isoproterenol-only mice, CH vs normal FC 2.3): −2.1 fold | FC Kyphoscoliosis peptidase (Ky) (GenBank BB126077, vs mice given only isoproterenol): 1.8 | FC EST (GenBank BB127176, vs mice given only isoproterenol): −1.7 | FC Endothelial differentiation sphingolipid G-protein-coupled receptor 1 (Edg1) (GenBank BB133079, vs mice given only isoproterenol): −2.4 | FC Interferon induced transmembrane protein 6 (Ifitm6) (GenBank BB193024, vs mice given only isoproterenol): −3.3 | FC RAS, dexamethasone-induced 1 (Rasd1) (GenBank BB217136, vs mice given only isoproterenol): −3.3 | FC EST (GenBank BB219003, vs mice given only isoproterenol): −2.1 | FC Inner membrane protein, mitochondrial (Immt) (GenBank BB222675, vs mice given only isoproterenol): 4.9 | FC EST (GenBank BB236747, vs mice given only isoproterenol): −1.7 | FC Procollagen-proline, 2-oxoglutarate 4-dioxygenase (proline 4-hydroxylase), alpha 1 polypeptide (P4ha1) (GenBank BB253720, vs mice given only isoproterenol): 1.9 | FC MAD homolog 1 (Smad1) (GenBank BB257769, vs mice given only isoproterenol): −1.9 | FC EST (GenBank BB312992, vs mice given only isoproterenol): −2.1 | FC Zi finger and BTB domain containing 16 (Zbtb16) (GenBank BB326368, heart, drug + isoproterenol vs isoproterenol-only mice, CH vs normal FC 5.1): −1.8 fold | FC Kelch-like 24 (Khl24) (GenBank BB328076, vs mice given only isoproterenol): −2.2 | FC Tissue inhibitor of metalloproteinase 4 (Timp4) (GenBank BB328405, heart, drug + isoproterenol vs isoproterenol-only mice, CH vs normal FC 5.6): −2.8 fold | FC Leucine-rich repeat-containing 8c (Lrrc8c) (GenBank BB333759, vs mice given only isoproterenol): −1.7 | FC EST (GenBank BB335101, vs mice given only isoproterenol): 2.2 | FC Insulin receptor substrate 1 (Irs1) (GenBank BB345784, vs mice given only isoproterenol): −1.7 | FC Tribbles homolog 2 (Trib2) (GenBank BB354684, heart, drug + isoproterenol vs isoproterenol-only mice, CH vs normal FC −1.9): 1.6 fold | FC EST (GenBank BB374879, vs mice given only isoproterenol): 2.7 | FC Transcription factor Dp 2 (Tfdp2) (GenBank BB405795, heart, drug + isoproterenol vs isoproterenol-only mice, CH vs normal FC 2.8): −2.2 fold | FC Inositol 1,4,5-trisphosphate 3-kinase B (Itpkb) (GenBank BB434111, vs mice given only isoproterenol): 2.5 | FC EST (GenBank BB476794, vs mice given only isoproterenol): 1.9 | FC Histone 1, H1e (Hist1h2be) (GenBank BB490701, vs mice given only isoproterenol): −1.7 | FC RNA, U22 small nucleolar (GenBank BB493265, vs mice given only isoproterenol): −1.8 | FC F-box and leucine-rich repeat protein 13 (Fbxl13) (GenBank BB503935, vs mice given only isoproterenol): 1.9 | FC OTU domain, ubiquitin aldehyde binding 1 (Otub1) (GenBank BB534069, vs mice given only isoproterenol): 2.0 | FC EST (GenBank BB535847, vs mice given only isoproterenol): −2.0 | FC Transglutaminase 2, C polypeptide (Tgm2) (GenBank BB550124, heart, drug + isoproterenol vs isoproterenol-only mice): −1.7 fold | FC Von Willebrand factor homolog (Vwf) (GenBank BB667216, heart, drug + isoproterenol vs isoproterenol-only mice, CH vs normal FC 2.3): −1.7 fold | FC Dehydrogenase E1 and transketolase domain containing 1 (Dhtkd1) (GenBank BB667395, vs mice given only isoproterenol): −2.1 | FC Fibroblast growth factor receptor 3 (Fgfr3) (GenBank BB732903, vs mice given only isoproterenol): −2.1 | FC Period homolog 3 (Per3) (GenBank BB757992, vs mice given only isoproterenol): 2.3 | FC Serine palmitoyltransferase, long chain base subunit 2 (Sptlc2) (GenBank BB794710, vs mice given only isoproterenol): −2.1 | FC Nucleoplasmin 3 (Npm3) (GenBank BB811478, vs mice given only isoproterenol): 2.1 | FC Heterogeneous nuclear ribonucleoprotein R (Hnrpr) (GenBank BB822465, vs mice given only isoproterenol): 1.8 | FC Integrator complex subunit 3 (Ints3) (GenBank BC003209, vs mice given only isoproterenol): −2.2 | FC Solute carrier family 39 (iron-regulated transporter), member 1 (Slc40a1) (GenBank BC003438, vs mice given only isoproterenol): −2.1 | FC Transforming, acidic coiled-coil containing protein 2 (Tacc2) (GenBank BC004057, heart, drug + isoproterenol vs isoproterenol-only mice, CH vs normal FC 2.8): −2.1 fold | FC Lutheran blood group (Auberger b antigen iluded) (Bcam) (GenBank BC004826, vs mice given only isoproterenol): 1.6 | FC Tubulin, beta 2c (Tubb2c) (GenBank BC005547, heart, drug + isoproterenol vs isoproterenol-only mice, CH vs normal FC −1.7): 2.5 fold
